We go through 1 compound from PMC10374545, “A small molecule inhibitor of PTP1B and PTPN2 enhances T cell anti-tumor immunity” (Nature Communications, 2023).

The test system of assay [1] is STAT-1 target genes in AT3 tumors. The assay can be described thus: qPCR of STAT-1 target genes in AT3 tumors. Format: in vivo, mouse. The protocol:
For quantitative real-time PCR analysis, RNA from tumors was isolated using RNAzol (Sigma-Aldrich, St. Louis, MO), and RNA quality was assessed using a NanoDrop 2000 (Thermo Fisher Scientific, Waltham MA). mRNA was reverse-transcribed using the High-Capacity cDNA Reverse Transcription Kit (Applied Biosystems, Thermo Fisher Scientific, Waltham, MA) and processed for quantitative Real-Time PCR using the Fast SYBR Green Master Mix (Applied Biosystems, Thermo Fisher Scientific, Waltham MA) and PrimePCR™ SYBR Green Assays (Bio-Rad, Hercules, CA) for Cxcl9 (qMmuCID0023784), Cxcl10 (qMmuCED0049500), Tapbp (qMmuCEP0035035), Tap1 (qMmuCEP0057739), […], H2ab1 (qMmuCIP0029038), Cd274 (qMmuCED0044192), H2k1 (qMmuCEP0034842), Tnf (qMmuCED0004141) and Ifng (qMmuCID0006268). Relative gene expression was determined by normalization to the house-keeping gene Rps18 (qMmuCED0045430) or Gapdh (qMmuCED0027497). Gene quantification was performed with the comparative Ct (ΔΔCt) method.
In general terms: Real-time PCR tracks product formation cycle by cycle.

A further assay has as its target T1, PTPN2 (Homo sapiens, UniProt P17706).
T1 construct: PTPN2, residues 1-387; made in house; host or cells: E. coli BL21(DE3)
T1 sequence (P17706 1-387 isoform P17706-2): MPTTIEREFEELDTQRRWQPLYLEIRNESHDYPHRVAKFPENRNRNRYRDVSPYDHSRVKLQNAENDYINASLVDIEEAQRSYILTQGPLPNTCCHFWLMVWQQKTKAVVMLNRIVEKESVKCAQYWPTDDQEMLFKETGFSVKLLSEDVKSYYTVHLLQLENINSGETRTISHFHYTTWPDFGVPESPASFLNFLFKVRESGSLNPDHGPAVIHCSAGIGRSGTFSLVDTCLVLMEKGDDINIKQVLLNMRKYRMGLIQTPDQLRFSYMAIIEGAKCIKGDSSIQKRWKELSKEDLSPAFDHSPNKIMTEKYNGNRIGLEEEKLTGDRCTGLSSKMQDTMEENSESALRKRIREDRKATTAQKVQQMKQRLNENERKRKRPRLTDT
The assay can be described thus: Mode of inhibition and Ki, Lineweaver-Burk kinetic analysis with DiFMUP. Format: biochemical. The protocol: To determine the mode of inhibition, the reactions were initiated by the addition of enzyme (final concentration for PTP1B and PTPN2 was 0.05 nM) to the reaction mixtures (0.2 ml) containing various concentrations of DiFMUP with different concentrations of the inhibitor. The reaction was allowed to proceed for 10 min and then quenched by the addition of 40 µl of a 160 µM solution of bpV(Phen) (Sigma-Aldrich, cat# SML0889). The fluorescence signal was measured using a CLARIOstar Plus Microplate Spectrophotometer (BMG Labtech) using excitation and emission wavelength of 340 nm and 450 nm, respectively. Data were fitted using Prism GraphPad 9.2.0. For selectivity studies, the inhibition assay for other PTPs were performed under the same conditions as used for PTP1B and PTPN2 except with different DiFMUP concentration corresponding to the Km of the PTP studied.

The next assay concerns NK cells. The assay can be described thus: NK cell activation (IFN-γ+, CD107A+) by cytokines or α-NK1.1/α-Ly49H. Format: cell-based, mouse. To be noted: cytokines or crosslinking NK1.1, Ly49H. How it is done: proliferation in vitro. a-b) NK cells from C57BL/6 male mice (n=3 per group) were expanded […]
µg/ml) or vehicle (1% v/v DMSO) in the absence of IL-15. a) NK cells were re-stimulated for 15 min with the indicated amounts of IL-15 and Y694 phosphorylated STAT-5 (p-STAT-5) mean fluorescence intensities (MFIs) determined by flow cytometry. b) Alternatively, NK cells were stained with carboxyfluorescein succinimidyl ester (CFSE, Invitrogen) and then re-stimulated with the indicated amounts of IL-15 for 96 h and NK cell proliferation (CFSE dilution) monitored by flow cytometry. c-d) NK cells from C57BL/6 male mice (n=3 per group) were expanded ex vivo in the presence of IL-15 and then pre-treated with CMP-182 (0.1 or 1 µg/ml) or vehicle in the absence of IL-15. NK cells were re-stimulated with either IL-12 (10 ng/ml) or IL-18 (100 ng/ml) or with α-NK1.1 or α-Ly49H for 4 h. NK cells were maintained in 10 ng/ml IL-15 throughout the 4 h incubation time. Percentages of c) IFN-γ+ and d) CD107A+ NK cells were determined by flow cytometry. In (a-d) results shown are means ± SEM and are representative of at least two independent experiments.

A further assay relates to AT3 mammary tumors. The assay can be described thus: Tumor-infiltrating lymphocytes in AT3 tumors, Compound 182 with α-PD-1. Format: in vivo, mouse. Further details: CD4 EM / CD8 EM / IFNg+ TNF+ / GRZMB / MDSCs / NK cells / Tregs: unit not given here. The protocol: In addition, mice received four intraperitoneal injections of α-PD-1 (200 μg in 200 μl D-PBS; clone RMP1-14), or rat IgG2a isotype control (100 μg in 200 μl D-PBS, Bio X Cell) twice per week.
Tumor-bearing mice were sacrificed and tumors were excised and digested at 37 °C for 30 min using a cocktail of 1 mg/ml collagenase type IV (Worthington Biochemicals) and 0.02 mg/ml DNase I (Sigma-Aldrich) in DMEM supplemented with 2% (v/v) FBS. Cells were passed through a 70 μm cell strainer (BD Biosciences) twice and processed for flow cytometry. For assessing T cell activation, cells were surface stained with fluorophore-conjugated antibodies to CD62L, CD44, PD-1, and TIM-3. For the assessment of NK cells, B cells, myeloid-derived suppressor cells (MDSCs), dendritic cells (DCs), and tumor-associated macrophages, cells were surface stained with fluorophore-conjugated antibodies to NK1.1, TCRβ, CD19, CD11b, CD11c, F4/80, Ly6C and Ly6G. For the detection of intracellular cytokines TNF and IFNγ, T cells were stimulated with PMA (20 ng/ml; Sigma-Aldrich) and ionomycin (1 μg/ml; Sigma-Aldrich) in the presence of GolgiPlug™ and GolgiStop™ (BD Biosciences) for 4 h at 37 °C in complete T cell medium. For the intracellular detection of granzyme B, cells were processed untreated without the addition of BD GolgiPlug™ and BD GolgiStop™.

[2] abbreviates: Figure 9A, qPCR in tumour, individual mice, CMP-182 vs Saline.
[3] abbreviates: Figure 9D, tumour-infiltrating cells, AT-3, individual mice, listed as CMP-182.
Where [4] appears, read: Figure 9E, AT-3, individual mice, listed as CMP-182.
[5] abbreviates: Figure 9F, tumour-infiltrating cells, AT-3, individual mice, listed as CMP-182.

The structures appear in SMILES notation. Where “and” joins values, the source holds several entries; their conditions need not be identical. Identical values can stand only once.

With `CC(C)(O)CCOc1ccc2cc(O)c(N3CC(=O)NS3(=O)=O)c(F)c2c1` [Compound 182, 5-(1-Fluoro-3-hydroxy-7-(3-hydroxy-3-methylbutoxy)naphthalen-2-yl)−1,2,5-thiadiazolidin-3-one 1,1-dioxide], the “expression of STAT-1 target genes, including Cd274, in AT3 tumors” value in assay [1] (10 mg/kg i.v.) is recorded as “increased expression”. In addition, in assay [1] (setting [2]), the cd274 was 1.71 and 1.441 and 1.3642 and 1.436 and 2.196 and 0.7307; the cxcl9 was 2.179 and 2.3662 and 1.906 and 0.2814 and 3.487 and 0.6344; the cxcl10 was 1.765 and 1.612 and 1.49 and 0.6644 and 2.144 and 0.8593. The mode of inhibition result on PTPN2 (Lineweaver-Burk) is given as “classic competitive inhibitor”. The Ki at PTPN2 (varying inhibitor and DiFMUP, steady state) came to 0.26 ± 0.02 nM. In addition, in the assay with NK cells, the “NK cell activation (IFNγ or CD107A expressing cells)” value is “nor did it affect”. In addition, the “recruitment of CD4+ and CD8+ effector/memory T cells, combination therapy” value in the assay with AT3 mammary tumors (Compound 182 10 mg/kg i.v. + α-PD-1 200 μg i.p.) was “synergistic recruitment”. In the assay on AT3 mammary tumors (setting [3]), the “CD4 EM” value is 43342.4 and 57673.5 and 79430.7 and 97780.3 and 96326.3 and 45818.5; the “CD8 EM” value is 103472 and 141360 and 229947 and 172459 and 191087 and 113353. For the same compound, in the assay with AT3 mammary tumors (setting [4]), the GRZMB is 24.8 and 18.9 and 21.2 and 17 and 24 and 19.1; the “PD-1 TIM-3” value was 32.5 and 47.7 and 47.8 and 31.8 and 39.5 and 41.5. In the assay with AT3 mammary tumors (Figure 9E, first IFNg+ TNF+ panel, AT-3, individual mice, listed as CMP-182), the “IFNg+ TNF+” value is 7.74 and 4.13 and 7.71 and 10.5 and 16.5 and 3.24. In the assay with AT3 mammary tumors (Figure 9E, second IFNg+ TNF+ panel, AT-3, individual mice, listed as CMP-182), the “IFNg+ TNF+” value is 19 and 26.4 and 15.4 and 31.9 and 43.5 and 25.3. Besides, in the assay on AT3 mammary tumors (setting [5]), the MDSCs was 15172.6 and 12646.1 and 18636.2 and 29520.3 and 27688.9 and 13342.8; the NK cells was 41998.7 and 24391.4 and 32687 and 55002.2 and 59698.1 and 23635.5; the Tregs was 32249.8 and 40798.3 and 43823.5 and 55176.6 and 44430.4 and 6773.49.

By Ki is commonly meant a dissociation constant, usually derived from enzyme kinetics or from competition with a known ligand.
